Reference: ChEMBL document CHEMBL1777790, “Discovery of novel HCV polymerase inhibitors using pharmacophore-based virtual screening” (Bioorg Med Chem Lett, 2011)
The source made the active and inactive calls. The rule behind the calls is not given here.

What was measured:
[1] = Cytotoxicity against human HuH7 cells; format: cell-based, Huh-7
[2] = test system: Hepatitis C virus; test: Antiviral activity against HCV in human HuH7 cells by replicon assay; format: functional, organism-based; details: Huh-7; for Activity: Hepacivirus hominis
[3] = test system: Hepatitis C virus subtype 1b; test: Inhibition of HCV genotype 1b NS5B RNA dependent RNA polymerase activity at 20 uM

Row | inhibition [3] | EC50 [2] [µM] | SMILES | CC50 [1] [µM] | Activity [2]
1 | 90% |  | COC(=O)c1ccc(C(=O)Nc2ccc3[nH]c(-c4ccccc4)nc3c2)cc1 | < 5 | inactive
2 |  |  | O=C(COc1ccccc1Cl)Nc1ccc(Oc2ccc(F)cc2)c(C(F)(F)F)c1 | 14.2 | 
3 |  |  | O=C(Nc1ccc2[nH]c(-c3cccnc3)nc2c1)c1ccco1 | 20 | inactive
4 | 14% |  | Cn1ncc(Cl)c1C(=O)Nc1ccc2[nH]c(-c3ccccc3)nc2c1 | < 5 | inactive
5 |  |  | O=C(Nc1cccc(Br)c1)c1ccc(Br)c(S(=O)(=O)Nc2ccccn2)c1 | > 50 | 
6 | 18.5% |  | CC(=O)Nc1ccc2[nH]c(-c3cccs3)nc2c1 | 20 | inactive
7 | 20% |  | O=C(Nc1ccc2[nH]c(-c3ccccc3)nc2c1)c1ccccc1 | 20 | inactive
8 | 54% | 2.16 | Cn1ncc([N+](=O)[O-])c1C(=O)Nc1ccc2[nH]c(-c3ccccc3)nc2c1 | 34.5 | 
9 | inactive |  | O=C(Nc1ccc2[nH]c(-c3ccc(Cl)cc3)nc2c1)C1C2CC3CC(C2)CC1C3 (centres undefined) | < 5 | inactive
10 | inactive |  | O=C(Nc1ccc2[nH]c(-c3ccccc3)nc2c1)c1ccco1 | < 5 | inactive
11 |  |  | O=C(Nc1ccc(NC(=O)c2cccs2)cc1Cl)c1ccco1 | 18 | 
12 |  |  | CC(=O)Nc1ccc2[nH]c(-c3ccccn3)nc2c1 |  | inactive
13 |  |  | O=C(Nc1ccc(F)cc1)c1ccc(Cl)c(S(=O)(=O)N2CCOCC2)c1 | 15.6 | 
14 |  |  | CC(=O)Nc1ccc2nc(-c3ccccn3)[nH]c2c1 | 24.8 | 
15 |  |  | CCOc1cc(NC(=O)CCl)c(OCC)cc1NC(C)=O | > 50 | 
16 | 8% |  | CS(=O)(=O)N(Cc1ccccc1)c1ccc(C(=O)NCc2ccco2)cc1 | 32.7 | 

Row | inhibition [3] | EC50 [2] [µM] | SMILES | CC50 [1] [µM] | Activity [2]
17 |  |  | CCOc1cc(NC(=O)c2ccco2)c(OCC)cc1NC(=O)CC | 36.1 | 
18 |  |  | CCCS(=O)(=O)c1ccc2[nH]c(NC(=O)OC)nc2c1 | < 5 | 
19 | 9% |  | CCC(=O)Nc1ccc(SC#N)c(C(F)(F)F)c1 | 45.8 | 
20 | 42% |  | CC(=O)Nc1ccc2[nH]c(-c3ccco3)nc2c1 | 25 | inactive
21 |  |  | COc1cc(/C=N/Nc2nc3ccccc3s2)ccc1OC(=O)c1ccco1 | 30.5 | 
22 |  |  | C=CCNC(=O)c1ccc(CN(c2cccc(Cl)c2)S(C)(=O)=O)cc1 | 33 | 
23 | 48% |  | C=C(C)C(=O)Nc1ccc(NC(=O)C(=C)C)c(OC(F)(F)C(F)F)c1 | 29 | inactive
24 | 13% |  | O=C1NN(c2ccc(Cl)c(Cl)c2)C(=O)/C1=C/c1ccc(N2CCOCC2)c([N+](=O)[O-])c1 | 27 | 
25 |  |  | COC(=O)c1ccc(C(=O)OC)c(NS(C)(=O)=O)c1 | 43.5 | 
26 |  |  | O=C(O)CNC(=O)/C(=C\c1cccc([N+](=O)[O-])c1)NC(=O)c1ccc(Br)o1 | > 50 | 
27 |  |  | C=CCNS(=O)(=O)c1ccc(OC)c(OC)c1 | 48.6 | 
28 | 19.7% |  | Nc1ccc(C(=O)Nc2ccc3[nH]c(-c4ccccc4)nc3c2)cc1 | < 5 | inactive
29 |  |  | Cc1ccc(C(=O)Nc2ccc(F)cc2)cc1S(=O)(=O)N1CCOCC1 | 16.5 | 
30 | 37.7% | 8.3 | Cn1cc([N+](=O)[O-])c(C(=O)Nc2ccc3[nH]c(-c4ccccc4)nc3c2)n1 | 17.3 | 
31 | 42.4% |  | O=C(Nc1ccc2[nH]c(-c3ccccn3)nc2c1)c1ccco1 | 20 | inactive
